Data on eight compounds can be found in paper PMC12105006, “AI-Driven De Novo Design and Development of Nontoxic DYRK1A Inhibitors” (Journal of Medicinal Chemistry, 2025).

Data set [1] in a line: Oxygen radical absorbance capacity (ORAC) antioxidant assay.
The test system of another data set is BV2 microglial cells. The data set can be described thus: MTT cell viability / toxicity in BV2 cells. The format is cell-based, mouse. As to the method: (§1) The mouse microglial BV2 cell line was propagated using DMEM, 10% FBS, 1% streptomycin–penicillin, under humidified 5% CO2 and 95% air. On attaining semiconfluence, cells were treated with 400 ng/mL of LPS for 24 h. Some cultures were pretreated for 1 h with the different compounds at several concentrations ranging from 1 to 10 μM. After treatment, cultures were processed for cell viability and nitrite production. Experiments were performed in triplicate. BV2 cells, microglial cells derived from C57/BL6 murine. These cells were immortalized using the v-raf/v-myc carrying J2 retrovirus, resulting in a stable cell line. The cells are commercially available from https://www.cytion.com/BV2-Cells/305156.
Cell viability was determined using the MTT assay, which measures the reduction of 3-(4,5-dimethylthiazol-2-yl)-2,5-diphenyltetrazolium bromide (MTT) to formazan crystals. Briefly, the MTT solution (2 mg/mL) was added to each well and incubated at 37 °C for 2 h. After removing the culture medium, 100 μL of dimethyl sulfoxide was added to each well to dissolve the formazan. The optical density was measured at 532 nm using a microplate reader. The absorbance of the control group was considered as 100% of the cell viability.

The next data set is described as follows: PAMPA-BBB assay. The format is in vitro ADME. The following applies: for BBB prediction: PAMPA-BBB, porcine brain lipid, 3 h, 25 °C. The protocol: The brain penetration of active compounds was assessed using a parallel artificial membrane permeability assay (PAMPA). Eleven drugs with known blood–brain barrier (BBB) permeability–Hydrocortisone, testosterone, imipramine, piroxicam, promazine, clonidine, desipramine, ofloxacin, aldosterone, verapamil, and caffeine–were included in each experiment to validate the analysis.
The compounds were dissolved in a 70/30 PBS pH = 7.4 buffer/ethanol solution at a concentration that ensured appropriate absorbance values in the UV–vis light spectrum. A 5 mL volume of these solutions was filtered using PDVF membrane filters (30 mm diameter, 0.45 μ m pore size).
The acceptor 96-well microplate (MultiScreen 96-well Culture Tray clear, Merck Millipore) was filled with 200 μL of PBS/ethanol (70/30). The donor 96-well filtrate plate (Multiscreen IP Sterile Plate PDVF membrane, 0.45 μ m pore size, Merck Millipore) was coated with 4 μL of porcine brain lipid (Spectra 2000) in dodecane (20 mg mL^–1).
After 5 min, 200 μL of each compound solution were added. The donor plate was then carefully placed onto the acceptor plate to form a “sandwich,” which was left undisturbed for 3 h at 25 °C. During this time, the compounds diffused from the donor plate through the brain lipid membrane into the acceptor plate.
After incubation, the donor plate was removed. The concentrations of the compounds and commercial drugs were determined by measuring absorbance in the donor wells (before incubation) and the acceptor wells (after incubation) using a CLARIOstar microplate reader (BMG LABTECH). Each sample was analyzed at five wavelengths in four replicates and two independent experiments.
The permeability coefficient (P e) of each drug, in centimeters per second, was calculated using the following formula Pe=Vd·Vr/(Vd−Vr)·s·t·100·Vd/100·Vd−%T(Vd−Vr) %T=Vr·Ar/Ad·Vd·100 where V d and V r are the volumes of the donor and receptor solutions (0.2 cm^3), s is the membrane area (0.2642 cm^2), t is the incubation time (3 h = 10,800 s), A r is the absorbance of the receptor plate after the experiment, and A d is the absorbance in the donor compartment before incubation. The results obtained for quality control drugs were compared with permeability data from the literature. […] Compounds that correlate with reported P e values between 2 and 4 × 10^–6 cm s^–1 are classified as CNS+/–.

Another data set deals with Human DYRK1A Kinase (Homo sapiens, UniProt Q13627). Nature of the data set: ADP-Glo DYRK1A kinase enzyme inhibition assay. The following applies: for IC50: read-out: IC50 (nM) DYRK1A, ATP (10 μmol/well) and DYRKtidE (4 μmol/well) as substrate, triplicate. (In general: ADP-Glo first removes unused ATP, then detects ADP through luciferase.)
The next data set has as its target DYRK1B (Homo sapiens, UniProt Q9Y463). Nature of the data set: ADP-Glo DYRK1B kinase enzyme inhibition assay. The following applies: read-out: IC50 (nM) DYRK1B; ATP (10 μmol/well) and DYRKtidE (4 μmol/well) as substrate; triplicate.
The test system of data set [2] is LPS-induced NO production in BV2 microglial cells. Nature of the data set: LPS-induced nitrite (NO) production, Griess reaction. The format is cell-based, mouse. As to conditions: for dose-dependent inhibition of LPS-induced NO production: decreasing concentrations (Figures S17, S18); for LPS-induced NO production: maximum dose 5 μM (1, 5, 8, 9) or 10 μM (6, 7, 10, 11), LPS 24 h, 1 h pretreatment. The protocol: as §1
The assessment of NO production involved quantifying nitrite levels, one of the end products of NO oxidation, through a procedure based on the diazotization of nitrite by sulfanilic acid (Griess reaction). Upon reaching semiconfluence, cells were exposed to 400 ng/mL of LPS for 24 h. Before this, certain cultures were pretreated with various compounds at concentrations ranging from 0.5 to 10 μM. Following a 24-h incubation period, 50 μL aliquots of the samples were combined with 50 μL of Griess reagent in 96-well plates, and the mixture was allowed to incubate at room temperature for 10 min. The absorbance of the resulting mixture was then measured at 520 nm using a microplate reader.
(In general: Griess reagent forms a coloured azo dye with nitrite.)

Where [3] appears, read: phosphate buffer pH 7.4, fluorescein/AAPH.

The term IC50 denotes the concentration at which inhibition is half-maximal.

Structures are written as SMILES. Entries after “also recorded” stand apart in the source; their conditions may differ. Where two headings read alike, the source gives them in different places.

Sequence of DYRK1B (Q9Y463 whole entry): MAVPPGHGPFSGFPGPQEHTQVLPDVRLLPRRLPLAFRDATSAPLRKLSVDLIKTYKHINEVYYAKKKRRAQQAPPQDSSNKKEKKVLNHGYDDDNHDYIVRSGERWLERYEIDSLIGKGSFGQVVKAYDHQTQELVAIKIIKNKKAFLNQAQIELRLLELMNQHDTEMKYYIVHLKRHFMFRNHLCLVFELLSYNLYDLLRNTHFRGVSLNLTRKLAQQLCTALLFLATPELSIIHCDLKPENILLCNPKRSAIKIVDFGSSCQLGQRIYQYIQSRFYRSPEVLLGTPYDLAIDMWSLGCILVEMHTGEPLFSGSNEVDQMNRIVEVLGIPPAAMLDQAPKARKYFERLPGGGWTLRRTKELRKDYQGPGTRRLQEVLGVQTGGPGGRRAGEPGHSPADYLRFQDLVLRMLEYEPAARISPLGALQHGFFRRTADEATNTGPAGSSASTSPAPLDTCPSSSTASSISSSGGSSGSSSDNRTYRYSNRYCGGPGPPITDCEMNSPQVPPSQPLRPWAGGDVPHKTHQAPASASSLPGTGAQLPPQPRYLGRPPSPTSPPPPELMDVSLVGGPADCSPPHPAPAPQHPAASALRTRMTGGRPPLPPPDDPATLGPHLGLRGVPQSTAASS

For `COc1cc(-c2c[nH]c3ncc(-c4cnn(C5CCNCC5)c4)cc23)c(F)cc1C` [Compound 11, 3-(2-Fluoro-5-methoxy-4-methylphenyl)-5-(1-(piperidin-4-yl)-1H-pyrazol-4-yl)-1H-pyrrolo[2,3-b]pyridine], the ORAC in data set [1] is 1.20 ± 0.1; in data set [1] (setting [3]) it was 1.2 ± 0.1 μmol of trolox equivalents/μmol of tested compound. Besides, the “toxicity (MTT assay)” value with BV2 microglial cells (concentrations up to 10 μM) is “nontoxic”. Besides, in the data set “PAMPA-BBB assay”, the BBB prediction entry was “CNS+ (CNS+, correlating with a bibliographic P e > 4)”. Besides, the IC50 amounted to 165 ± 17 nM on Human DYRK1A Kinase and 165 ± 30 nM on DYRK1B.
Take `CN1CCC(n2cc(-c3cnc4[nH]cc(-c5cc(Cl)cc(Cl)c5)c4c3)cn2)CC1` [Compound 6, 3-(3,5-Dichlorophenyl)-5-(1-(1-methylpiperidin-4-yl)-1H-pyrazol-4-yl)-1H-py-rrolo[2,3-b]pyridine]: in data set [1], the “ORAC values” is given as “around 0.5 trolox equivalents”. Moreover, the “toxicity (MTT assay)” value in the data set on BV2 microglial cells (concentrations up to 10 μM) is recorded as “nontoxic”. In addition, in the data set “PAMPA-BBB assay”, the BBB prediction result is given as “CNS+ (CNS+, correlating with a bibliographic P e > 4)”. Moreover, on DYRK1B, the 50% inhibitory concentration (IC50) amounted to 577 ± 49 nM.
As to `Fc1cccc(-c2c[nH]c3ncc(-c4cnn(C5CCNCC5)c4)cc23)c1` [Compound 8, 3-(3-Fluorophenyl)-5-(1-(piperidin-4-yl)-1H-pyrazol-4-yl)-1H-pyrrolo[2,3-b]py-ridine], the ORAC in data set [1] is given as 1.0 ± 0.1; in data set [1] (setting [3]), 1.0 ± 0.1 μmol of trolox equivalents/μmol of tested compound. The “toxicity (MTT assay)” value with BV2 microglial cells (at 5 μM) is on record as “nontoxic”; in the data set with BV2 microglial cells (at 10 μM), “exhibited toxicity”. Moreover, the “dose-dependent inhibition of LPS-induced NO production” value in data set [2] is recorded as “particularly strong”. Moreover, the “LPS-induced NO production” value in data set [2] is “most pronounced effects”. Moreover, the BBB prediction entry in the data set “PAMPA-BBB assay” is given as “CNS+ (CNS+, correlating with a bibliographic P e > 4)”. Also, the “DYRK1A activity / IC50 values” on Human DYRK1A Kinase is recorded as “comparable to the reference compound, harmine”. Further, the IC50 was found to be 48 ± 3 nM on Human DYRK1A Kinase and 70 ± 5 nM on DYRK1B.
For `Clc1cc(Cl)cc(-c2c[nH]c3ncc(-c4cnn(C5CCNCC5)c4)cc23)c1` [Compound 10, 3-(3,5-Dichlorophenyl)-5-(1-(piperidin-4-yl)-1H-pyrazol-4-yl)-1H-pyrrolo[2,3-b]pyridine], the ORAC in data set [1] is 0.55 ± 0.07; in data set [1] (setting [3]), 0.55 ± 0.07 μmol of trolox equivalents/μmol of tested compound. Also, the “ORAC values” in data set [1] is “around 0.5 trolox equivalents”. For the same compound, the “toxicity (MTT assay)” value in the data set on BV2 microglial cells (concentrations up to 10 μM) is reported as “nontoxic”. Besides, the “ability to cross the blood–brain barrier by passive permeation” value in the data set “PAMPA-BBB assay” (PAMPA) is recorded as “in the limit of a positive prediction”. For the same compound, the BBB prediction entry in “PAMPA-BBB assay” is “CNS+/– (Compounds that correlate with reported P e values between 2 and 4 × 10^–6 cm s^–1 are classified as CNS+/–)”. The IC50 on Human DYRK1A Kinase was 450 ± 18 nM; on DYRK1B, 566 ± 61 nM.
In the case of `COc1cc(-c2c[nH]c3ncc(-c4cnn(C5CCN(C)CC5)c4)cc23)c(F)cc1C` [Compound 7, 3-(2-Fluoro-5-methoxy-4-methylphenyl)-5-(1-(1-methylpiperidin-4-yl)-1H-py-razol-4-yl)-1H-pyrrolo[2,3-b]pyridine], the ORAC in data set [1] is given as 1.3 ± 0.1; in data set [1] (setting [3]), 1.3 ± 0.1 μmol of trolox equivalents/μmol of tested compound. Besides, the “toxicity (MTT assay)” value in the data set on BV2 microglial cells (concentrations up to 10 μM) is reported as “nontoxic”. Moreover, the BBB prediction result in the data set “PAMPA-BBB assay” is “CNS+ (CNS+, correlating with a bibliographic P e > 4)”. The IC50 on DYRK1B turned out to be 174 ± 31 nM.
As to `CN1CCC(n2cc(-c3cnc4[nH]cc(-c5cccc(F)c5)c4c3)cn2)CC1` [Compound 1, 3-(3-fluorophenyl)-5-(1-(1-methylpiperidin-4-yl)-1H-pyrazol-4-yl)-1H-pyrrolo[2,3-b]pyridine], the ORAC was 1.02 ± 0.03 in data set [1] and 1.02 ± 0.03 μmol of trolox equivalents/μmol of tested compound in data set [1] (setting [3]). The figures for the “toxicity (MTT assay)” value with BV2 microglial cells (at 5 μM) and in the data set on BV2 microglial cells (at 10 μM) were “nontoxic” and “exhibited toxicity”, respectively. Besides, in data set [2], the “dose-dependent inhibition of LPS-induced NO production” value was “particularly strong”. The “LPS-induced NO production” value in data set [2] is given as “most pronounced effects”. Further, the BBB prediction result in “PAMPA-BBB assay” is given as “CNS+ (CNS+, correlating with a bibliographic P e > 4)”. Moreover, the “DYRK1A activity / IC50 values” on Human DYRK1A Kinase is “activity at the nanomolar level; also recorded: comparable to the reference compound, harmine”. The results for the IC50 at Human DYRK1A Kinase and at DYRK1B were 41 ± 3 nM and 78 ± 3 nM, respectively.
For `COc1cccc(-c2c[nH]c3ncc(-c4cnn(C5CCNCC5)c4)cc23)c1` [Compound 9, 3-(3-Methoxyphenyl)-5-(1-(piperidin-4-yl)-1H-pyrazol-4-yl)-1H-pyrrolo[2,3-b]pyridine], the ORAC in data set [1] is 1.3 ± 0.1; in data set [1] (setting [3]) it was 1.3 ± 0.1 μmol of trolox equivalents/μmol of tested compound. For the same compound, the figures for the “toxicity (MTT assay)” value in the data set with BV2 microglial cells (at 5 μM) and in the data set on BV2 microglial cells (at 10 μM) were “nontoxic” and “exhibited toxicity”, respectively. For the same compound, in data set [2], the “dose-dependent inhibition of LPS-induced NO production” value was “particularly strong”. The BBB prediction entry in “PAMPA-BBB assay” is “CNS+ (CNS+, correlating with a bibliographic P e > 4)”. Further, at Human DYRK1A Kinase, the “DYRK1A activity / IC50 values” is “comparable to the reference compound, harmine”. Further, the results for the IC50 at Human DYRK1A Kinase and on DYRK1B were 81 ± 4 nM and 109 ± 8 nM, respectively.
Consider `COc1cccc(-c2c[nH]c3ncc(-c4cnn(C5CCN(C)CC5)c4)cc23)c1` [Compound 5, 3-(3-Methoxyphenyl)-5-(1-(1-methylpiperidin-4-yl)-1H-pyrazol-4-yl)-1H-pyrro-lo[2,3-b]pyridine], for which the ORAC in data set [1] is 1.25 ± 0.07; in data set [1] (setting [3]) it was 1.25 ± 0.07 μmol of trolox equivalents/μmol of tested compound. In addition, the results for the “toxicity (MTT assay)” value in the data set with BV2 microglial cells (at 5 μM) and with BV2 microglial cells (at 10 μM) were “nontoxic” and “exhibited toxicity”, respectively. Further, the “dose-dependent inhibition of LPS-induced NO production” value in data set [2] is “particularly strong”. Besides, the BBB prediction result in “PAMPA-BBB assay” is given as “CNS+ (CNS+, correlating with a bibliographic P e > 4)”. For the same compound, the “DYRK1A activity / IC50 values” at Human DYRK1A Kinase is given as “comparable to the reference compound, harmine”. For the same compound, the values for the IC50 on Human DYRK1A Kinase and at DYRK1B were 79 ± 5 nM and 119 ± 11 nM, respectively.
